The test has as its system factors (genes) causing atopic dermatitis. As to the kind of experiment: Expression of atopic dermatitis factors (genes) in skin of DNFB-treated mice, real time PCR (Experimental Example 4). The format is in vivo. The conditions noted are these: RNA from skin of DNFB-treated female BALB/C mice, compound 100 μM on skin once a day to day 16; FIGS. 9 to 12. As to the method:
For real time PCR, RNA was extracted using RNAiso Plus (TAKARA, Japan) and cDNA was synthesized using a cDNA synthesis kit (TAKARA, JAPAN). The polymerization reaction was carried out using the synthesized cDNA and a Sybr green kit (Enzynomics, Korea). […]

For `NC(=O)[C@H](Cc1c[nH]cn1)NC(=O)[C@H]1CCCN1C(=O)c1cccc(O)c1O` [Example 18], the “expression of the factors (genes) causing atopic dermatitis” value is “reduce the expression of the factors (genes)”.

The values are drawn from patent US20240254108A1, “COMPOUND COMPRISING PYRROLIDINE AS LINKER, AND PHARMACEUTICAL COMPOSITION COMPRISING SAME” (BEAD TECH INC., priority 2021, published 2024).
